From patent US5436243A, “Aminoanthraquinone derivatives to combat multidrug resistance” (priority 1993, dated 1995)
Entries after “also recorded” stand apart in the source; their conditions may differ. Read-outs that look alike come from different tables or passages of the source.

What was measured:
patients [1] = conditions: human, in vivo; cited from earlier work
MDR cell lines = conditions: literature, cited from earlier work
[2] = system: MCF7 Adr 10 human breast cancer cells; assay: Vinblastine accumulation assay, MCF7 Adr 10; assay type: cell-based; conditions: for activity in vinblastine accumulation assay / drug accumulation: MDR MCF7
Experimental: [^3 H] vinblastine ([^3 H] VLB) was added to a final concentration of 100 nM and the cells were incubated for 2.5 hours. At this time, the cells were washed 3 times in ice cold PBS and lysed in buffer containing 0.1% Triton X-100. Net accumulation of [^3 H] vinblastine was expressed as pmol/mg protein. In [^3 H]

[3] = Partition in Bligh-Dyer extracts; assay type: physicochemical
Experimental: At these wavelengths, there was minimal absorbance by cellular components contained in the chloroform phase. […] METHOD: […] The monolayers were treated with 25 μM 1b or 1c and incubated at 37° C. After incubating the samples for the times indicated in FIG. 1, the monolayers were washed three times with DPBS and detached using 1 ml of Trypsin-EDTA.An aliquot of the cell suspension was counted using a Coulter Counter and a 0.8 ml aliquot was extracted in a Bligh-Dyer extraction (Bligh et at., Can. J. Biochem. 31:911-916 (1959)). The absorbance of the lower chloroform phase was measured at 648 nm and 600 nm using a spectrophotometer. The amount of 1b or 1c present in the extract was quantitated from a standard curve performed in cell extracts. The data is expressed as nmol anthraquinone/10^6 cells.

PKC [4] = assay: Micellar PKC screening assay; assay type: biochemical
Source text: The N-substituted diaminoanthraquinone, 1b, (1,4-bis-[[3'-(diethylamino)propyl]amino]anthraquinone), was identified as a PKC inhibitor in the micellar PKC screening assay and in platelets. […] Spectrophotometric analysis of 1b and lc indicated they were excellent chromophores with absorbance maxima at 648 and 600 nm in chloroform, respectively, and extinction coefficients of approximately 20,000. At these wavelengths, there was minimal absorbance by cellular components contained in the chloroform phase. These properties of 1b and 1c were utilized to determine the time course of accumulation of these compounds in MDR MCF7 Adr 10 cells.
The activities of 1a, 1b, 1c and 1d and mitoxantrone, an anthraquinone antineoplastic drug, were evaluated in vinblastine drug accumulation assays performed by the following method. […] Mitoxantrone was identified as a PKC inhibitor in miceliar PKC assays. Compound 1d (1,4-bis-[[2-(4-morpholino)ethyl]amino]anthraquinone) was only evaluated in cellular studies.

casein kinase 2 = assay: Casein kinase 2 inhibition; assay type: biochemical
Source text: One possible explanation for stimulation of phosphorylation of P-glycoprotein and MARCKS is that 1c may activate PKC or other cellular kinases by signal transduction pathways that have not yet been identified to phosphorylate these proteins. An alternative explanation for stimulation of phosphorylation of P-glycoprotein and MARCKS is that 1c inhibits protein phosphatases.

MCF7 Adr 10 [5] = assay: 72 hour MTT proliferation assay, reversal of drug resistance in MCF7 Adr 10; assay type: cell-based, human; conditions: [1c] 0 μM; for IC50: Homo sapiens, NCI/ADR-RES
Experimental: (§1) In 72 hour MTT proliferation assays using the following method, compounds 1b, 1c and 1d were assessed for inhibition of Vinca alkaloid and anthracycline drug resistance in MDR MCF7. Additionally, compounds 1b and 1c were assessed for potentiation of sensitivity to Vinca alkaloid and anthracycline drugs in the parental MCF7 WT cell line.
(§2) METHOD: 5000 cells per well were plated in 100 μl of IMDM containing 10% FCS and allowed to adhere overnight. The following day the cells were treated with N-substituted 1,4-diaminoanthraquinones and exposed to graded concentrations of antineoplastic agents. 50 μl of IMDM 10% FCS containing either vehicle or N-substituted 1,4-diaminoanthraquinones at 3 times the final tested concentration was added to cells at timed intervals. The plates were incubated for 2 hours at 37° C. to allow maximal cellular accumulation of N-substituted 1,4-diaminoanthraquinones. 40 μl aliquots of IMDM 10% FCS containing either vehicle or graded concentrations of antineoplastic drugs at 5 times the final concentration were added to treatment groups. Following this addition, 10 μl of IMDM 10% FCS containing either vehicle or N-substituted 1,4-diaminoanthraquinone at 5 times the final concentration was added to each group of wells. The cells were incubated for 72 hours after treatment. At this time the viable cells in each treatment group were estimated in a colorimetric assay by adding MTT and incubating the cells at 37° C. for 3-4 hours. The media in each well was aspirated and MTT formazan was solubilized in isopropyl alcohol acidified with 0.1 N HCl. The absorbance of the solubilized formazan was quantitated using a plate reader spectrophotometer. […] The concentrations of antineoplastic drugs which inhibited proliferation by 50% (IC50's) were estimated by calculating a percentage from the ratio: antineoplastic drug treated groups/control group absorbance and plotting the dose response curve on semilog paper. The IC50 was estimated from this curve. To assess the effects of inhibition of resistance by N-substituted 1,4-diaminoanthraquinones, the percentages were calculated relative to cell groups treated with resistance modifier alone and IC50's calculated as above. A reversal factor was calculated by dividing the IC50 to the antineoplastic drug alone (Control group) by the IC50 to antineoplastic drug in cells treated with resistance modifier.

[6] = [3H] VLB binding to MCF7 WT membrane vesicles; parameters: species or system human; conditions: MCF7 WT vesicles
Experimental: METHOD: Membrane vesicles from sensitive and MDR MCF7 were prepared by nitrogen cavitation and isolated by centrifugation in discontinuous sucrose gradients. […] In the presence of 100 nM [^3 H] VLB and ATP, total and nonspecific binding of [^3 H] VLB (experimentally defined as binding in the presence of a 100 μM unlabeled VLB) was measured. Association of [^3 H] […] In contrast, association of [^3 H] […] VLB with MCF7 WT vesicles.

[7] = biological target: P-glycoprotein in MCF7 Adr 10 membrane vesicles (Homo sapiens, UniProt P08183)
P-glycoprotein [8] = conditions: intact MDR cells and MDR membrane vesicles; cited from earlier work
MCF7 WT [9] = assay: 72 hour MTT proliferation assay, potentiation of sensitivity in MCF7 WT; assay type: cell-based, human
Experimental: as §1, §2

MCF7 WT [10] = assay: Tumor cell clonogenic assay, MCF7 WT; assay type: cell-based, human; conditions: Homo sapiens, MCF7, read-out: Continuous Exposure IC50, MCF7 WT
Experimental: The tumor cell clonogenic assays measure clonal proliferation of tumor cells. In this assay, 300-500 cells are plated in 10 cm^2 wells, allowed to adhere overnight, and are treated the following day. Tumor cell colonies were counted after 10-12 days of culture. […] The IC50's are calculated as described above for the MTT proliferation assays.

MCF7 Adr 10 [11] = assay: Tumor cell clonogenic assay, MCF7 ADR 10; assay type: cell-based, human; conditions: Homo sapiens, NCI/ADR-RES, read-out: Continuous Exposure IC50, MCF7 ADR 10
Experimental: The tumor cell clonogenic assays measure clonal proliferation of tumor cells. In this assay, 300-500 cells are plated in 10 cm^2 wells, allowed to adhere overnight, and are treated the following day. Tumor cell colonies were counted after 10-12 days of culture. The times of exposure in these experiments are similar; however, the concentrations of FCS are 20% in the CFU-GM assay and 10% in the tumor cell clonogenic assays. The IC50's are calculated as described above for the MTT proliferation assays.

patients [12] = conditions: cited from earlier work
PKC [13] = conditions: literature; cited from earlier work
P-glycoprotein [14] = conditions: literature; cited from earlier work
[15] = system: patients with tumors clinically resistant to adriamycin; conditions: cited from earlier work

Chain of P-glycoprotein in MCF7 Adr 10 membrane vesicles (P08183 whole entry): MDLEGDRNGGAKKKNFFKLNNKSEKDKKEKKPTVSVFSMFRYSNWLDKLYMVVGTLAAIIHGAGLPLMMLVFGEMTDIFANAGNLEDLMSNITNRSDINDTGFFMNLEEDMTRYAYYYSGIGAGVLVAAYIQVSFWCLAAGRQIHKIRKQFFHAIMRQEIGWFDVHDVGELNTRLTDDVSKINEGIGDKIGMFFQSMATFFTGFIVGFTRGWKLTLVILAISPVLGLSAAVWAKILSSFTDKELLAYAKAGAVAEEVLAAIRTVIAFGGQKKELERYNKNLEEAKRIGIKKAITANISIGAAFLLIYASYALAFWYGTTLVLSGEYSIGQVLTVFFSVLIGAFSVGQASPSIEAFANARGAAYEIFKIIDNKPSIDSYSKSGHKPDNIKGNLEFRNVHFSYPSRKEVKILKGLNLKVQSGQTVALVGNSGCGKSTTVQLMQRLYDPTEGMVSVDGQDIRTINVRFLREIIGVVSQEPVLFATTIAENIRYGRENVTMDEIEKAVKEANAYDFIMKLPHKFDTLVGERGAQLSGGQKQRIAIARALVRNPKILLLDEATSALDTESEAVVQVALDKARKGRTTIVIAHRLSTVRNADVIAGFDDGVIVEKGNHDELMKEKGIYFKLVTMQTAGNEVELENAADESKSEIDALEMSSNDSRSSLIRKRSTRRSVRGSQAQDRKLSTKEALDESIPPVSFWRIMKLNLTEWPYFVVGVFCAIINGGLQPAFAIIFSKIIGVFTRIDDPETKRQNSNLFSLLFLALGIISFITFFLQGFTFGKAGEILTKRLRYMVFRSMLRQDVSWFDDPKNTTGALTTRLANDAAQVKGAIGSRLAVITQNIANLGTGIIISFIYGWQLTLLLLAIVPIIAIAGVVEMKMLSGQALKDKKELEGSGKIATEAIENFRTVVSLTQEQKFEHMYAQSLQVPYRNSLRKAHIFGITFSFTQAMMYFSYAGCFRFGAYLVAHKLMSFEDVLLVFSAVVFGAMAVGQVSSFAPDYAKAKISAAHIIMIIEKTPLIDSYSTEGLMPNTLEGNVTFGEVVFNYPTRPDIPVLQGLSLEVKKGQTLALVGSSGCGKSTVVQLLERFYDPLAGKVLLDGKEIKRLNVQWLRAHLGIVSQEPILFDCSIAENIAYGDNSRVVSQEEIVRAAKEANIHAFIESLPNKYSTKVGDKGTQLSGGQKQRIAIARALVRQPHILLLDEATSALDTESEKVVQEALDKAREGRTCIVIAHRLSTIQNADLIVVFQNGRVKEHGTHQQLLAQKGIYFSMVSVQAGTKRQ

## COc1ccc(CCN(C)CCC[C@](C#N)(c2ccc(OC)c(OC)c2)C(C)C)cc1OC [D-verapamil]
Patients [1]
  toxicity in humans: too toxic to use at high concentrations in humans

## CN(C)CCOc1ccc(/C(=C(/CCCl)c2ccccc2)c2ccccc2)cc1 [toremifene]
MDR cell lines
  drug accumulation and reversal of resistance in MDR cell lines: can also modulate resistance of estrogen receptor-negative MDR cell lines

## O=C1c2ccccc2C(=O)c2c(NCCN3CCOCC3)ccc(NCCN3CCOCC3)c21 [Compound 1d, 1,4-bis-[[2-(4-morpholino)ethyl]amino]anthraquinone]
[2]; Homo sapiens, NCI/ADR-RES, 100 nM [3H] VLB, 2.5 hours, FIGS. 2 and 3, read-out: lowest concentration which causes a doubling of basal accumulation of vinblastine
  minimal effective concentration: 2.5 µM
[2]
  activity in vinblastine accumulation assay / drug accumulation: increase vinblastine accumulation in MDR MCF7

## O=C1c2c(O)ccc(O)c2C(=O)c2c(NCCNCCO)ccc(NCCNCCO)c21 [mitoxantrone, reference compound]
[3]
  partition into the lower chloroform phase: does not partition into the lower chloroform phase
PKC [4]
  PKC activity in micellar PKC screening assay: PKC inhibitor
  inhibitory activity in in vitro PKC assays relative to 1b or 1c: greater inhibitory activity
[2]
  activity in vinblastine accumulation assay / drug accumulation: significant loss of activity; also recorded: did not show significant activity
[2]; listed as Mitoxantrone
  activity in vinblastine accumulation assay / drug accumulation: does not increase drug accumulation
Casein kinase 2
  inhibitory activity in in vitro casein kinase 2 assays relative to 1b or 1c: greater inhibitory activity
MDR cell lines
  drug accumulation and reversal of resistance in MDR cell lines: less cross-resistance

## COc1cccc2c1C(=O)c1c(O)c3c(c(O)c1C2=O)C[C@@](O)(C(C)=O)C[C@@H]3O[C@H]1C[C@H](N)[C@H](O)[C@H](C)O1 [DNR, reference compound]
MCF7 Adr 10 [5]; average ± SD of 3 experiments, read-out: DNR IC50
  IC50: 6700 nM
MCF7 Adr 10 [5]
  Reversal Factor (DNR): 1.0

## CCCCCCCCNc1ccc(NCCCCCCCC)c2c1C(=O)c1ccccc1C2=O [Compound 1a, 1,4-bis-(octylamino) anthraquinone]
PKC [4]
  PKC activity in micellar PKC screening assay: PKC stimulation
[2]
  activity in vinblastine accumulation assay / drug accumulation: inactive; also recorded: did not show significant activity

## CCC1(O)CC2CN(CCc3c([nH]c4ccccc34)C(C(=O)OC)(c3cc4c(cc3OC)N(C)C3C(O)(C(=O)OC)C(OC(C)=O)C5(CC)C=CCN6CCC43C65)C2)C1 (centres unmarked) [[^3 H] VLB]
[6]
  association of [3H] VLB relative to MCF7 Adr 10: approximately 15%
[7]
  enhancement of [3H] VLB association by addition of ATP: 2-3 fold
  time to maximal association of [3H] VLB: ≤ 15 min

## O-acetyl C9 -cyclosporin A [SDZ 33-243]
P-glycoprotein [8]
  [3H] azidopine photoaffinity labeling of P-glycoprotein: inhibit

## CC[C@]1(O)C[C@H]2CN(CCc3c([nH]c4ccccc34)[C@@](C(=O)OC)(c3cc4c(cc3OC)N(C=O)[C@H]3[C@@](O)(C(=O)OC)[C@H](OC(C)=O)[C@]5(CC)C=CCN6CC[C@]43[C@@H]65)C2)C1 [VCR, reference compound]
MCF7 Adr 10 [5]; average ± SD of 3 experiments, read-out: VCR IC50
  IC50: 3300 nM
MCF7 Adr 10 [5]
  Reversal Factor (VCR): 1.0
MCF7 WT [9]; Homo sapiens, MCF7, read-out: VCR IC50
  IC50: 1.9 nM
MCF7 WT [9]; [1c] 0 μM, MCF7 WT
  Reversal Factor (VCR): 1.0
MCF7 WT [10]
  IC50: 0.4 nM
MCF7 Adr 10 [11]
  IC50: 970 nM

## COc1ccc(CCN(C)CCCC(C#N)(c2ccc(OC)c(OC)c2)C(C)C)cc1OC (centres unmarked) [verapamil]
MDR cell lines
  concentrations inhibiting the MDR phenotype: 2 to 10 µM
  drug accumulation and reversal of resistance in MDR cell lines: more effective in reversal of resistance to anticancer drugs in other studies
MDR cell lines; listed as Verapamil
  drug accumulation and reversal of resistance in MDR cell lines: increases in accumulation and decreases in resistance to natural product chemotherapeutic drugs
Patients [12]
  dose-limiting toxicity: dose-limiting cardiac toxicity
PKC [13]
  PKC inhibition in vitro: non-specifically inhibit PKC in vitro

## CCCCCCCCCCCCCC(=O)O[C@@H]1[C@@H](C)[C@@]2(O)[C@@H](C=C(CO)C[C@]3(O)C(=O)C(C)=C[C@@H]23)[C@@H]2C(C)(C)[C@]12OC(C)=O [phorbol myristate acetate]
P-glycoprotein [14]
  phosphorylation of the P-glycoprotein: stimulate phosphorylation of the P-glycoprotein

## COc1cccc2c1C(=O)c1c(O)c3c(c(O)c1C2=O)C[C@@](O)(C(=O)CO)C[C@@H]3O[C@H]1C[C@H](N)[C@H](O)[C@H](C)O1 [ADR, reference compound]
MCF7 Adr 10 [5]; average ± SD of 4 experiments, read-out: ADR IC50
  IC50: 38000 nM
MCF7 Adr 10 [5]
  Reversal Factor (ADR): 1.0
MCF7 WT [10]
  IC50: 5.6 nM
MCF7 Adr 10 [11]
  IC50: 3400 nM

## CN1CCN(CCCN2c3ccccc3Sc3ccc(C(F)(F)F)cc32)CC1 [trifluoperazine]
MDR cell lines
  drug accumulation and reversal of resistance in MDR cell lines: increase drug accumulation and decrease resistance in MDR cell lines
[15]; 36 patients, oral, with constant infusion adriamycin
  tumor responses: One complete response and six partial responses
[15]; human, in vivo
  dose-limiting toxicity: Neurotoxicity of trifluoperazine to the extrapyramidal tracts was dose-limiting
  plasma concentrations below those optimal for modulation of chemoresistance in vitro: approximately 10 fold
P-glycoprotein [14]
  phosphorylation of the P-glycoprotein: stimulate phosphorylation of the P-glycoprotein
PKC [13]
  PKC inhibition in vitro: non-specifically inhibit PKC in vitro
